These results are taken from patent US20230263787A1, “ENHANCED MITOCHONDRIAL RESPONSE WITH THIOZOLIDINEDIONE, PIOGLITAZONE OR ROSIGLITAZONE” (priority 2020, published 2023).

Data set [1] concerns cerebellar slices from Shiverer mice. The data set can be described thus: Mitochondrial dynamics in dysmyelinated Purkinje cell axons of Shiverer cerebellar slices exposed to lysolecithin. The conditions noted are these: chronically dysmyelinated axons. Format: cell-based, mouse. As to the method: Cerebellar slices were prepared as previously described. Briefly, wild type C57BL/6 and Shiverer mice pups were sacrificed at P10 and cerebellum was placed in ice-cold dissection medium. The sagittal slices were then sectioned into 300 µm thick slices and placed on a membrane insert. Picospritzer III (Parker, US) and a micromanipulator was used to inject mEOS2-Lentivirus (titre 7-8*10^9; aliquots stored at -80° C.) containing 0.025% of Fast-Green (FG, Sigma F7258, UK) in to the Purkinje cell body layer. […]
Live imaging of mitochondria in Purkinje cell axon was performed at DIV14, directly after removing the lysolecithin. […] Newly transported mitochondria, either appearing from the neuronal cell body to the most proximal 20 micron axonal segment or distal axonal mitochondria appearing in the 20 microns long axonal segment of the most distal photoconverted segment, were counted visually and confirmed using the kymograph. […] For each mitochondrion appearing, the direction of movement was noted, as well as the area of the mitochondrion was measured manually, using the measure function in Fiji, when it first appeared in the axon.
Kymographs of the time lapse images were generated by using the ImageJ plugin KymographClear2.0 [40]. Mitochondrial speed of movement was determined by using the Kymotoolbox ImageJ plugin [80]. […]

A further data set deals with DRG axons. In words: Lysolecithin exposure of unmyelinated DRG cultures (axon damage). Format: cell-based, mouse. As to conditions: 0.005 mg/ml lysolecithin for 2 hours.
Another data set relates to DRG-OPC co-cultures. In words: Axon damage after lysolecithin demyelination in microfluidic chambers, drug applied to neuronal cell body chamber. The format is cell-based, mouse. As to conditions: 15 µM SR-18292 added together with pioglitazone to cell body chamber. As to the method: Before adding lysolecithin to microfluidic chambers, the inventors used an Axio Observer Z1 inverted motorized microscope (Zeiss, Germany), for live imaging to identify the myelinated axonal segments (video 11, online resource). Images of the myelinated axonal segments were saved with x-y coordinates of the stage position. The effect of live imaging on the axons and myelin was determined by imaging microfluidic chamber containing both mKate2 expressing DRGs and eGFP-expressing OPC where imaged at 20x magnification (Plan-Apochromat 0.8 NA Ph 2 M27 objective, Zeiss, Germany) for 30 minutes before returning the microfluidic chambers to the incubator.
The inventors then added lysolecithin for 2 hours before live imaging the previously imaged axonal segments again, using the x-y co-ordinate of the stage position. These live images of axons, pre and post lysolecithin, allowed the assessment of the demyelination of the axonal segments (based on M1-M4-eGFP fluorescence) as well as axonal damage following acute demyelination (based on appearance of mKate2 fluorescence). […] Meanwhile, axons were classed as fragmented when the mKate2 fluorescence was disrupted and not continuous in at least one part of the axon. […] Following exposure to lysolecithin, demyelination was confirmed based on disruption or loss of M1-M4-eGFP fluorescence. […]

The test system of data set [2] is DRG neurons. In words: Seahorse analysis of mitochondrial respiration in DRG neurons. The conditions noted are these: sodium azide 100 µM for 16 hours.
Protocol: DRG neuronal cells were cultured on V7 Seahorse 24-well cell culture microplates (Agilent Technologies), in maintenance medium in a 5% CO2 37° C. incubator. […] Plates were incubated for 30 mins at 37° C. (without CO2), before entry into the Seahorse XFe24 Extracellular Flux Analyser (Agilent). Three measurements were taken basally, and three measurements taken after injection of each drug to either inhibit ATP-linked respiration, uncouple respiration or inhibit the respiratory chain. Mitochondrial respiration was calculated by subtracting the first OCR measurement following injection of antimycin/rotenone from the third basal OCR measurement. Normalisation of OCR to relative protein content was achieved following Sulforhodamine B (SRB) staining of all cell wells. Data for each treatment groups was averaged from between 4-5 replicate wells.
The subject of data set [3] is DRG neurons. The conditions noted are these: 17 hours.
Protocol: Complex IV histochemistry was performed as described below and images were obtained using bright field microscopy. The intensity of the complex IV reactive product was assessed using FIJI and densitometry to analyse complex IV activity at a single cell level.

For “L-α-Lysophosphatidylcholine [lysolecithin]”, the “axonal mitochondrial dynamics of newly transported mitochondria” value in data set [1] was “does not significantly impact”. Moreover, in the data set with DRG axons, the “damage to DRG axons in unmyelinated cultures” value was “without damaging the DRG axons”.

`Cc1ccc(CN(CC(O)COc2cccc3[nH]ccc23)C(C)(C)C)cc1` (stereo not drawn) [PGC1α inhibitor, SR-18292]: the “effect on the protective effect of pioglitazone on demyelinated axons” value in the data set with DRG-OPC co-cultures is “significantly diminished”.

For the compound `[N-]=[N+]=[N-]` [sodium azide], the cell viability result with DRG neurons [2] was “without compromising cell viability”. In addition, in the data set on DRG neurons [3], the “highest dose which did not impact cell viability and resulted in complex IV inhibition” value is given as 100 µM.
